The first experiment concerns SREBP pathway. Nature of the experiment: SREBP luciferase reporter gene system (SRE-luciferase assay). It counts as cell-based, human. Conditions: Homo sapiens, Huh-7, 16 h, Huh-7/SRE-luc cells, sterol-deficient medium, 0.01-10 µM. The procedure, abridged: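 Huh-7 cells stably carrying LDLR promoter-luciferase plus GFP were treated 16 h in sterol-deficient medium (5% lipoprotein-deficient serum, 2 µM lovastatin, 10 µM mevalonic acid) at 0.01–10 µM. Luciferase/GFP ratio measured as pathway activity; inhibition versus DMSO fitted to a four-parameter model for IC50.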
Take `COc1ncc(F)cc1C(O)CCC[C@@H](C)[C@H]1CC[C@H]2[C@H]3[C@H](CC[C@]12C)[C@@]1(C)CC[C@H](O)[C@H](O)[C@@H]1CC3(F)F` (stereo partly drawn) [Compound 151, (1R,3aS,3bS,5aR,6R,7S,9aR,9bS,11aR)-4,4-difluoro-1-[(2R)-6-(5-fluoro-2-methoxypyridin-3-yl)-6-hydroxyhexan-2-yl]-9a,11a-dimethylhexadecahydro-1H-cyclopenta[1,2-a]phenanthrene-6,7-diol]: the IC50 is 0.18 µM. Regarding `COc1ccc(F)cc1[C@@H](O)CCC[C@@H](C)[C@H]1CC[C@H]2[C@H]3[C@H](CC[C@]12C)[C@@]1(C)CC[C@H](O)[C@H](O)[C@@H]1CC3(F)F` [Compound 168, (1R,3aS,3bS,5aR,6R,7S,9aR,9bS,11aR)-4,4-difluoro-1-[(2R,6S)-6-(5-fluoro-2-methoxyphenyl)-6-hydroxyhexan-2-yl]-9a,11a-dimethylhexadecahydro-1H-cyclopenta[1,2-a]phenanthrene-6,7-diol], the IC50 worked out at 0.092 µM.

Regarding `C[C@H](CCCC(O)c1c(F)ccnc1F)[C@H]1CC[C@H]2[C@H]3[C@H](CC[C@]12C)[C@@]1(C)CC[C@H](O)[C@H](O)[C@@H]1CC3(F)F` (stereo partly drawn) [Compound 146, (1R,3aS,3bS,5aR,6R,7S,9aR,9bS,11aR)-1-[(2R)-6-(2,4-difluoropyridin-3-yl)-6-hydroxyhexan-2-yl]-4,4-difluoro-9a,11a-dimethylhexadecahydro-1H-cyclopenta[1,2-a]phenanthrene-6,7-diol], the IC50 was determined as 0.16 µM. Still for that read-out and setting: in the case of `COc1ccnc(F)c1[C@@H](O)CCC[C@@H](C)[C@H]1CC[C@H]2[C@H]3[C@H](CC[C@]12C)[C@@]1(C)CC[C@H](O)[C@H](O)[C@@H]1CC3(F)F` (single isomer, unassigned) [Compound 229] it was 0.049 µM. As for `C[C@H](CCCC(O)C1CC2CCC1C2)[C@H]1CC[C@H]2[C@H]3[C@H](CC[C@]12C)[C@@]1(C)CC[C@H](O)[C@H](O)[C@@H]1CC3(F)F` (stereo partly drawn) [Compound 213, (1R,3aS,3bS,5aR,6R,7 S,9aR,9bS,11aR)-1-[(2R)-6-(Bicyclo[2.2.1]heptan-2-yl)-6-hydroxyhexan-2-yl]-4,4-difluoro-9a,11a-dimethylhexadecahyd ro-1H-cyclopenta[1,2-a]phenanthrene-6,7-diol], the IC50 was 0.569 µM.

`C[C@H](CCC[C@H](O)c1nnnn1C)[C@H]1CC[C@H]2[C@H]3[C@H](CC[C@]12C)[C@@]1(C)CC[C@H](O)C[C@@H]1CC3(F)F` (single isomer, unassigned) [Compound 380]: the IC50 worked out at 0.152 µM. On the same count and under the same terms, in the case of `COc1cc(F)cc(F)c1[C@H](O)CCC[C@@H](C)[C@H]1CC[C@H]2C3=C(F)C[C@H]4[C@@H](O)[C@@H](O)CC[C@]4(C)[C@H]3CC[C@]12C` (single isomer, unassigned) [Compound 203] it was 0.174 µM; in that of `COc1cccc(F)c1C(O)CCCC(C)C1CCC2C3=C(F)CC4C(O)C(O)CCC4(C)C3CCC21C` (single isomer, unassigned) [Compound 163], 0.201 µM. Same read-out and setting: in the case of `C[C@H](CCCC(O)c1c(F)ccnc1F)[C@H]1CC[C@H]2C3=C(F)C[C@H]4[C@@H](O)[C@@H](O)CC[C@]4(C)[C@H]3CC[C@]12C` (stereo partly drawn) [Compound 145, (1R,3aR,5aR,6R,7S,9aR,9bR,11aR)-1-[(2R)-6-(2,4-difluoropyridin-3-yl)-6-hydroxyhexan-2-yl]-4-fluoro-9a,11a-dimethyl-2,3,3a,5,5a,6,7,8,9,9a,9b,10,11,11a-tetradecahydro-1H-cyclopenta[1,2-a]phenanthrene-6,7-diol] it was 0.35 µM. As to `COc1nccnc1[C@@H](O)CCC[C@@H](C)[C@H]1CC[C@H]2[C@H]3[C@H](CC[C@]12C)[C@@]1(C)CC[C@H](O)[C@H](O)[C@@H]1CC3(F)F` [Compound 155, (1R,3aS,3bS,5aR,6R,7S,9aR,9bS,11aR)-4,4-difluoro-1-[(2R,6S)-6-hydroxy-6-(3-methoxypyrazin-2-yl)hexan-2-yl]-9a,11a-dimethylhexadecahydro-1H-cyclopenta[1,2-a]phenanthrene-6,7-diol], the IC50 came to 0.188 µM.

As to `COc1cccc(OC)c1C(O)CCC[C@@H](C)[C@H]1CC[C@H]2C3=C(F)C[C@H]4[C@@H](O)[C@@H](O)CC[C@]4(C)[C@H]3CC[C@]12C` (stereo partly drawn) [Compound 115, (1R,3aR,5aR,6R,7S,9aR,9bR,11aR)-1-[(2R)-6-(2,6-dimethoxyphenyl)-6-hydroxyhexan-2-yl]-4-fluoro-9a,11a-dimethyl-2,3,3a,5,5a,6,7,8,9,9a,9b,10,11,11a-tetradecahydro-1H-cyclopenta[1,2-a]phenanthrene-6,7-diol], the IC50 was determined as 0.613 µM.

Regarding `COc1ccnc(F)c1C(O)CCC[C@@H](C)[C@H]1CC[C@H]2C3=C(F)C[C@H]4[C@@H](O)[C@@H](O)CC[C@]4(C)[C@H]3CC[C@]12C` (stereo partly drawn) [Compound 150, (1R,3aR,5aR,6R,7S,9aR,9bR,11aR)-4-fluoro-1-[(2R)-6-(2-fluoro-4-methoxypyridin-3-yl)-6-hydroxyhexan-2-yl]-9a,11a-dimethyl-2,3,3a,5,5a,6,7,8,9,9a,9b,10,11,11a-tetradecahydro-1H-cyclopenta[1,2-a]phenanthrene-6,7-diol], the IC50 amounted to 0.19 µM. Turning to `C[C@H](CCC[C@H](O)c1ccc(F)nc1OCC1COC1)[C@H]1CC[C@H]2[C@H]3[C@H](CC[C@]12C)[C@@]1(C)CC[C@H](O)[C@H](O)[C@@H]1CC3(F)F` [Compound 385, (1R,3aS,3bS,5aR,6R,7S,9aR,9bS,11aR)-4,4-difluoro-1-[(2R,6S)-6-{6-fluoro-2-[(oxetan-3-ylmethyl)oxy]pyridin-3-yl}-6-hydroxyhexan-2-yl]-9a,11a-dimethylhexadecahydro-1H-cyclopenta[1,2-a]phenanthrene-6,7-diol], the IC50 is 0.332 µM.

For `C[C@H](CCCC(O)c1[nH]ncc1F)[C@H]1CC[C@H]2[C@H]3[C@H](CC[C@]12C)[C@@]1(C)CC[C@H](O)[C@H](O)[C@@H]1CC3(F)F` (stereo partly drawn) [Compound 237, (1R,3aS,3bS,5aR,6R,7S,9aR,9bS,11aR)-4,4-difluoro-1-[(2R)-6-(4-fluoro-2H-pyrazol-3-yl)-6-hydroxyhexan-2-yl]-9a,11a-dimethylhexadecahydro-1H-cyclopenta[1,2-a]phenanthrene-6,7-diol], the IC50 was 0.726 µM. The same measure, in the same setting: in the case of `C[C@H](CCC[C@H](O)c1ccccn1)[C@H]1CC[C@H]2[C@H]3[C@H](CC[C@]12C)[C@@]1(C)CC[C@H](O)[C@H](O)[C@@H]1CC3(F)F` [Compound 91, (1R,3aS,3bS,5aR,6R,7S,9aR,9bS,11aR)-4,4-difluoro-1-[(2R,6S)-6-hydroxy-6-(pyridin-2-yl)hexan-2-yl]-9a,11a-dimethylhexadecahydro-1H-cyclopenta[1,2-a]phenanthrene-6,7-diol] it was 0.378 µM; in that of `COc1ccnc(F)c1C(O)CCC[C@@H](C)[C@H]1CC[C@H]2[C@H]3[C@H](CC[C@]12C)[C@@]1(C)CC[C@H](O)[C@H](O)[C@@H]1CC3(F)F` (stereo partly drawn) [Compound 149, (1R,3aS,3bS,5aR,6R,7S,9aR,9bS,11aR)-4,4-difluoro-1-[(2R)-6-(2-fluoro-4-methoxypyridin-3-yl)-6-hydroxyhexan-2-yl]-9a,11a-dimethylhexadecahydro-1H-cyclopenta[1,2-a]phenanthrene-6,7-diol], 0.14 µM.

Still in this experiment, the particulars now being: Huh-7/SRE-luc cells, sterol-deficient medium, 16 hours, 0.01-10 µM.
Take `C[C@H](CCN(C)C(=O)c1ccccc1F)[C@H]1CC[C@H]2[C@@H]3CC[C@@]4(C)[C@@H](O)[C@@H](O)CC[C@]4(C)[C@H]3CC[C@]12C` [Compound 15B, 2-fluoro-N-[(3R)-3-[(1R,3aS,3bS,5aR,6R,7S,9aR,9bS,11aR)-6,7-dihydroxy-5a,9a,11a-trimethylhexadecahydro-1H-cyclopenta[1,2-a]phenanthren-1-yl]butyl]-N-methylbenzamide]: the IC50 is 0.32 µM. Same read-out and setting: in the case of `C[C@H](CCCC(O)c1cnc2c(c1)OC(F)(F)O2)[C@H]1CC[C@H]2[C@H]3[C@H](CC[C@]12C)[C@@]1(C)CC[C@H](O)[C@H](O)[C@@H]1CC3(F)F` (single isomer, unassigned) [Compound 286] it was 0.26 µM; in that of `COc1ccc(F)c(C(O)CCC[C@@H](C)[C@H]2CC[C@H]3[C@H]4[C@H](CC[C@]23C)[C@@]2(C)CC[C@H](O)[C@H](O)[C@@H]2CC4(F)F)c1` (single isomer, unassigned) [Compound 166, (1R,3aS,3bS,5aR,5aR,6R,7S,9aR,9bS,11aR) -4,4-difluoro-1-[(2R,6S)-6-(2-fluoro-5-methoxyphenyl)-6-hydroxyhexan-2-yl]-9a,11a-dimethylhexadecahydro-1H-cyclopenta[1,2-a]phenanthrene-6,7-diol or (1R,3aS,3bS,5aR,6R,7S,9aR,9bS,11aR)-4,4-difluoro-1-[(2R,6R)-6-(2-fluoro-5-methoxyphenyl)-6-hydroxyhexan-2-yl]-9a,11a-dimethylhexadecahydro-1H-cyclopenta[1,2-a]phenanthrene-6,7-diol], 0.138 µM; in that of `COc1cc(C(O)CCC[C@@H](C)[C@H]2CC[C@H]3[C@H]4[C@H](CC[C@]23C)[C@@]2(C)CC[C@H](O)[C@H](O)[C@@H]2CC4(F)F)cc(F)n1` (single isomer, unassigned) [Compound 248, (1R,3aS,3bS,5aR,6R,7S,9aR,9bS,11aR)-4,4-difluoro-1-[(2R,6R)-6-(6-fluoro-2-methoxypyridin-4-yl)-6-hydroxyhexan-2-yl]-9a,11a-dimethylhexadecahydro-1H-cyclopenta[1,2-a]phenanthrene-6,7-diol or (1R,3aS,3bS,5aR,6R,7S,9aR,9bS,11aR)-4,4-difluoro-1-[(2R,6S)-6-(6-fluoro-2-methoxypyridin-4-yl)-6-hydroxyhexan-2-yl]-9a,11a-dimethylhexadecahydro-1H-cyclopenta[1,2-a]phenanthrene-6,7-diol], 0.035 µM.

For the origin of these results see patent EP4752152A1, “STEROID COMPOUND, AND PREPARATION METHOD THEREFOR AND USE THEREOF” (Cholesgen (Shanghai) Co.Ltd., priority 2023, dated 2025).
